Reference: US20220008508A1, “RELAXIN RECEPTOR 1 FOR USE IN TREATMENT AND PREVENTION OF HEART FAILURE” (Universität Heidelberg, priority 2018, published 2022)

Columns and labels:
human RXFP1 = target: T1, human RXFP1 (Homo sapiens, UniProt Q9HBX9); assay: P-PLB(S16) immunoblot in NRVMs transduced with human RXFP1 virus; assay type: cell-based, rat
T1 construct: synthesized and cloned into a pCDNA3.1 plasmid with N-terminal FLAG-TAG; expressed in transfected cells; host or cells: neonatal rat ventricular cardiomyocytes (NRVMs) transduced with AAV6-huRXFP1
Description: (§1) Images were processed using Odyssey imaging software.

rat RXFP1 = target: T2, rat RXFP1 (Rattus norvegicus, UniProt Q6R6I6); assay: P-PLB(S16) immunoblot in NRVMs transduced with rat RXFP1 virus; assay type: cell-based; conditions: 1 μM ML290 for 30 minutes
T2 construct: expressed in transfected cells
T2 sequence (Q6R6I6 1-758): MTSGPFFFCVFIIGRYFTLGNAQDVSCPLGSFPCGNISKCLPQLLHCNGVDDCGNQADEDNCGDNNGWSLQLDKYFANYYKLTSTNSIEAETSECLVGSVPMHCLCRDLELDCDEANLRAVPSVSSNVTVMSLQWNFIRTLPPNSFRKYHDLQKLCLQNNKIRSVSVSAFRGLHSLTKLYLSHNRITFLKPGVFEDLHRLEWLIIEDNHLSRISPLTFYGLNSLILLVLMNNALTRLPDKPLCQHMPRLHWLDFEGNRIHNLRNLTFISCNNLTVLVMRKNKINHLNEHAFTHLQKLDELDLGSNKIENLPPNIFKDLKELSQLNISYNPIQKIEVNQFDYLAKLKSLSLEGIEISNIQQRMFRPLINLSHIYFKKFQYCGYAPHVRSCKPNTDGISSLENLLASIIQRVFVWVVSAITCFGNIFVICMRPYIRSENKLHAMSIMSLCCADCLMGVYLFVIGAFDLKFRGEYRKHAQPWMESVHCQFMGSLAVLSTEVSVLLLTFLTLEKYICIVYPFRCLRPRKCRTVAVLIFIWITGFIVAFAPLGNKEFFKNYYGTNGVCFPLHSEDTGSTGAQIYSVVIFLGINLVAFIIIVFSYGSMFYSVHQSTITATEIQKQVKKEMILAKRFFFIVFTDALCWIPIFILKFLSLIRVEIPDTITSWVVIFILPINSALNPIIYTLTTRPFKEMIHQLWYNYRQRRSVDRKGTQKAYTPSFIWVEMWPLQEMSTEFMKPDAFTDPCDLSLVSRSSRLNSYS
Description: as §1

[1] = Circulating plasma levels of recombinant relaxin H2 by ELISA; assay type: in vivo, mice; conditions: all animals receiving RLN by osmotic pump
Description: Circulating plasma levels of recombinant relaxin H2 were measured using a ready to use relaxin H2 Quantikine ELISA kit from R&D Systems (DLR200). Plasma samples were diluted 1:200 to stay within the detection range of the assay. 50 μL of negative control, positive control, standard and diluted samples were used for the measurement.

[2] = system: TAC-induced heart failure in mice; assay: TAC heart failure model, echocardiography after huRXFP1 gene therapy with or without RLN pumps; assay type: in vivo, C57BL/6 mice; conditions: day 55, control AAV9.LUC virus, RLN pump
Description: Heart failure model was generated by transverse aortic constriction operation (TAC) previously described (Rockman et al., 1991, Proc. Natl. Acad. Sci. 88: 8277-8281). 8 weeks old C57BL/6 mice were ordered and weighted prior to the operation. TAC operation was performed on day 0 using 26-gauge blunt needle effectively reducing the diameter of the transverse aorta to approximately 0.46 mm (Rockman et al., 1994, Proc. Natl. Acad. Sci. 91(7): 2694-2698). Cardiac function measurements were performed before Transverse aortic Constriction (TAC) operation (day −2) before virus infusion (day 7), before pump implantation (day 28), and at 2-month follow up time point (day 55) (FIG. 7A). […] Osmotic pumps were implanted on day 28 with animals randomized to get either saline or recombinant relaxin pumps. Follow up assessments were performed on day 55 and the animals were sacrificed 3 days later. In addition, 17 mice served as control animals that were sham operated followed by either saline or recombinant relaxin pumps implantation.
(§2) Echocardiography was performed using Vevo 2100, VisualSonics. The mice were shaved on the chest and held in prone position. […] The ejection fraction (EF) was calculated from 6 consecutive heartbeats in the M-mode using LV trace function.

[3] = system: adult mouse cardiomyocytes expressing RXFP1; assay: Ca2+ transient measurement in adult cardiomyocytes of RXFP1 transgenic mice; assay type: cell-based; conditions: isolated TG adult cardiomyocytes, 100 nM RLN, 1 minute
Description: Adult mouse cardiac cells were isolated a modified protocol from Harding et al. (Harding et al., 1990, Cardioscience. 1: 49-54). The mouse heart was perfused with digestion buffer in the Langendorff technique, thus enabling dissociation of single cardiac cells. An adult male mouse (30-35 g) was quickly euthanatized by cervical dislocation. Incision areas on the abdomen and thorax were sterilized with 70% ethanol and opened with lateral cuts by scissors. The abdominal Vena Cava was exposed, and heparin was given I.V. Then the heart was exposed and cut out with a large portion of the aorta and quickly placed into a 6 cm Petri dish with 10 mL of room temperature perfusion buffer. The aorta was slid onto the cannula of the Langendorff apparatus and fixed with a double knots surgical suture. Perfusion was started immediately with a drip rate of ˜3.5 mL/min. Filling of the coronary arteries was checked and evaluated in order to determine, if the heart was correctly positioned on the cannula. In order to remove residual serum traces and free Ca2+, the heart was washed with perfusion buffer for 1 minute. After that the heart was perfused with digestion buffer containing a mixture of liberase (mixture of collagenases) and trypsin solution for 10 minutes. The perfusion was stopped, when the heart became flaccid and easily penetrable by fine tip forceps. […]
Intracellular Ca^2+ transients were measured according to Yu et al. with modifications to fit available apparatus (Yu et al., 2013, J. Biol. Chem. 288(31): 22481-22492). […] Next the dish was protected from light and connected to an electrode system on the table of a high throughput inverted fluorescence microscope (Cytocypher). […] The alternative measurement of the bispectral emission (340 nm/380 nm) was performed with the fluorescence microscope for baseline and after 1, 5, and 10 minutes stimulation with NaCl, 100 nM RLN, and 10 nM ISO. The transients were calculated using transient calculated software from the cytocypher. The following parameters were analyzed: a) Peak Height, b) Departure velocity, and c) Return velocity.

[4] = system: TAC-induced heart failure in mice; assay: TAC heart failure model, echocardiography after AAV9-RXFP1 (rat) gene therapy with or without RLN pumps; assay type: in vivo, C57BL/6 mice; conditions: day 55, control AAV9.LUC virus, RLN pump
Description: Transverse aortic constriction (TAC) operation was previously described (Rockman et al., 1991, Proc. Natl. Acad. Sci. 88: 8277-8281). TAC model was used as heart failure model. 8 weeks old C57BL/6 mice were weighted prior to the operation. TAC operation was performed on day 0 using 26-gauge blunt needle effectively reducing the diameter of the transverse aorta to approximately 0.46 mm (Rockman et al., 1994, Proc. Natl. Acad. Sci. 91(7): 2694-2698). Cardiac function was assessed by echocardiography (Vevo 2100 VisualSonics) before TAC operation (day −2), before virus infusion (day 7), before pump implantation (day 28), and at 2-month follow up (day 55) (FIG. 1A and B). […] Osmotic pumps (Alzet 2004) were implanted on day 28 with animals randomized to get either saline or recombinant relaxin pumps. Follow up assessments were performed on day 55 and the animals were sacrificed 3 days later. In addition, 17 mice served as control animals which underwent sham operation, followed by either saline or recombinant relaxin pump implantation.
as §2, with “shaved” for “shaved on the chest”, “(EF), fractional shortening (FS), left ventricular internal diameter (LVIDd) and heart rate (HR) were” for “(EF) was”

huRXFP1 = target: T3, huRXFP1 (Homo sapiens, UniProt Q9HBX9); assay: Pressure-volume loop hemodynamics in huRXFP1 TG animals after RLN administration; assay type: in vivo, mouse; conditions: RXFP1 transgenic animals vs WT animals, 10 μg RLN I.P.
T3 construct: FLAG huRXFP1 was cloned onto a place holder plasmid; expressed in transfected cells; host or cells: transgenic mice, cardiomyocyte expression under the alpha-MHC promoter (in vivo)
T3 sequence (Q9HBX9 with tags, fused parts or gaps): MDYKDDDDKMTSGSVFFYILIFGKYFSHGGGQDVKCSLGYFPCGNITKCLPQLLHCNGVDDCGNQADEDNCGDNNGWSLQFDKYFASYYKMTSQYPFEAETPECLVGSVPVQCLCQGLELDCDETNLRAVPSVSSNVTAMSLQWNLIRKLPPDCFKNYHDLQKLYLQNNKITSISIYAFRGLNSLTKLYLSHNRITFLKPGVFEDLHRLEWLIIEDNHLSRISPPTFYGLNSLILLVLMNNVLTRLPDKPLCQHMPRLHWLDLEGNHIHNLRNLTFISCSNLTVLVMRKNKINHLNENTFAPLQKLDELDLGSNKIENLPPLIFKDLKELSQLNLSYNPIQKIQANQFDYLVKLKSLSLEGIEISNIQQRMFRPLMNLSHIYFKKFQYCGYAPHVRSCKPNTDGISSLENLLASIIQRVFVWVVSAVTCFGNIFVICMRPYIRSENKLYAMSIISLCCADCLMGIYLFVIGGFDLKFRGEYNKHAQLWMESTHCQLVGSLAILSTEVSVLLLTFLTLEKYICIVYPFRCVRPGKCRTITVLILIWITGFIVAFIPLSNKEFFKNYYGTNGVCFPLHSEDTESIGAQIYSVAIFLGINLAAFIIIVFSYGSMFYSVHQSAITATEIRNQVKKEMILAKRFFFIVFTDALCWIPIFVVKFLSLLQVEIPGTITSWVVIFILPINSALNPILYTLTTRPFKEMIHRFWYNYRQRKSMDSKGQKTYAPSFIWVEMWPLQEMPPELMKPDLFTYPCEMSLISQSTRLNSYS
Description: Pressure-volume loop (PV loop) measurement was performed modified from Abraham and Mao (Abraham and Mao (2015), J. Vis. Exp. (103): e52942). The animal was anesthetized according to the body weight with a cocktail of medetomidine, midazolam, and fentanyl intraperitoneally 15 minutes prior to the measurements. After the righting reflex was lost, the mouse was secured to the operating table with surgical tape. Prior to the measurement, the catheter tip was equilibrated in warm saline for 30 minutes. The neck and chest area was cleaned with ethanol and the fur was removed. An incision was made over the right carotid from mandible to sternum. The surrounding tissue was dissected to expose the right carotid, and the vagus nerve, which runs adjacent to the carotid, was […]. Sterile 6.0 silk suture was placed around the distal end (away from the chest) of the carotid artery, tied and secured. An additional suture was placed below the first suture on the carotid artery. The second suture was loosely tightened and clamped the carotid artery proximally to the second suture. […] The PV loops were continuously recorded throughout the experiment until 10 minutes after administration of the tested substances.
minimum were calculated according to the manufacturer's recommendation (Transonic). […]

RXFP1 receptor = target: T4, RXFP1 receptor (Rattus norvegicus, UniProt Q6R6I6); assay: cAMP production (cAMP Glo assay) in RXFP1-transduced NRVMs stimulated with RLN; assay type: cell-based
T4 construct: expressed in transfected cells; host or cells: neonatal rat ventricular cardiomyocytes (NRVMs) transduced with AAV6-RXFP1
T4 sequence (Q6R6I6 1-758): T2 sequence (Q6R6I6 1-758)
Description: Manufacture's manual was followed. […] The luminescence was measured with a luminometer.

[5] = target: rat (Rattus norvegicus) relaxin receptor 1 (RXFP1) with N-terminal FLAG-TAG, expressed in neonatal rat ventricular cardiomyocytes from AAV6-CMV-MLC260-FLAG-Rel1 Rattus (Rattus norvegicus) (UniProt Q6R6I6); assay: cell-based or functional assay

CC(C)Oc1ccccc1C(=O)Nc1ccccc1C(=O)Nc1cccc(S(=O)(=O)C(F)(F)F)c1 [ML290, 2-Isopropoxy-N-(2-(3-(trifluoromethylsulfonyl)phenylcarbamoyl)phenyl)benzamide]
P-PLB(S16), 1 μM ML290 vs 100 nM recombinant RLN (human RXFP1): No difference | P-PLB(S16) (human RXFP1; 1 μM ML290 for 30 minutes): Significant increase | P-PLB(S16) (rat RXFP1): Marked increase

RLN: recombinant relaxin H2 peptide hormone, RXFP1 agonist
RLN plasma levels [1]: elevated | Ejection fraction (EF) [2]: 50.02±18.31% | Ca2+ transient Departure velocity [3]: trend toward an increase | Ca2+ transient Peak Height [3]: trend toward an increase | Ca2+ transient Return velocity [3]: trend toward an increase | Ejection fraction (EF) [4]: 47.79±13.38% | Fractional shortening (FS) [4]: 23.98±7.64 | Heart rate (HR) (huRXFP1): significant increase | dP/dt maximum (huRXFP1): significant increase | RLN concentration at peak stimulation of the RXFP1 receptor (cAMP) (RXFP1 receptor; 30 minutes): 10 nM | cAMP accumulation with higher recombinant RLN concentrations (RXFP1 receptor; above 10 nM RLN): no further increase

recombinant relaxin H2 (from UniProt P04090 25-53; P04090 162-185) (ligand)
RLN concentration of peak cAMP stimulation in transduced NRVMs [5]: 10 nM
